Patent publication US20240269278A1, “ANTI-CD47 ANTIBODY FOR COMBINED TREATMENT OF BLOOD TUMOR” (Nanjing Shunxin Pharmaceuticals Co., Ltd. of Chiatai …, priority 2021, published 2024)

Tests used:
[1] = system: human acute myeloblastic leukemia MOLM-16; assay: Subcutaneous mouse xenograft tumor of MOLM-16; assay type: in vivo
Protocol: The experimental animals were NOD-SCID mice (5-6 weeks old, female) purchased from Beijing Huafukang Biotechnology Co., Ltd., with the production license number of SCXK (Jing) 2019-0008 and the animal certification number of 110322211100910838. The housing environment was in a SPF grade. Human acute myelocytic leukemia MOLM-16 cells were purchased from DSMZ. MOLM-16 cells were cultured in an incubator at 37° C. with 5% CO2 in air. Subculturing was performed twice a week, and when the cells were in a logarithmic growth phase, the cells were collected, counted, and inoculated. 1×10^7 MOLM-16 cells were inoculated to each mouse subcutaneously, and when tumors reached the volume of 100-150 mm^3, the mice were divided into groups and injected with drugs intravenously (IV) at the administration volume of 0.1 mL/10 g of body weight.
(§1) The experimental index was to investigate the effects of the drugs on the tumor growth, and the specific index was T/C % or the tumor growth inhibition rate (TGI %, tumor growth inhibition).
(§2) Tumor diameters were measured twice a week with a vernier caliper and tumor volume (V) was calculated according to the following formula: […]
(§3) where a and b represent length and width, respectively.
(§4) T/C (%)=(T−T0)/(C−C0)×100,
(§5) where T and C are the tumor volumes of animals at the end of the experiment in the test group and the negative control group, respectively; T0 and C0 are the tumor volumes of animals at the beginning of the experiment in the test group and the negative control group, respectively.
(§6) If the volume of tumor shrinks compared with its initial volume, i.e., T<T0 […], it is defined as partial regression (PR) of tumor; if the tumor completely disappears, it is defined as complete regression (CR) of tumor.
At the end of the experiment, the animals were sacrificed by CO2 anesthesia and dissected to give the tumors. The tumors were photographed.

[2] = system: human B-cell lymphoma Daudi; assay: Subcutaneous mouse xenograft tumor of Daudi; assay type: in vivo, NOD-SCID mice; details: IV D0, 3, hz14A9-2.3 1.5 mg/kg, Rituximab 3 mg/kg
Protocol: The experimental animals were NOD-SCID mice (5-6 weeks old, male) purchased from Shanghai Lingchang Biotechnology Co., Ltd., with the production license number of SCXK (Hu) 2018-0003 and the animal certification number of 20180003014870. The housing environment was in a SPF grade. Human B-cell lymphoma Daudi cells were purchased from Cell Bank of the Chinese Academy of Sciences. Daudi cells were cultured in an incubator at 37° C. with 5% CO2 in air. Subculturing was performed twice a week, and when the cells were in a logarithmic growth phase, the cells were collected, counted, and inoculated. 1×10^7 Daudi cells were inoculated to each mouse subcutaneously, and when tumors reached the volume of about 100 mm^3, the mice were divided into groups and injected with drugs intravenously (IV) once every 3 days (Q3D) for a total of 2 times at the injection volume of 0.1 mL/10 g of body weight.
as §1, §2, §3, §4, §5, §6
At the end of the experiment (D24), the animals were sacrificed by CO2 anesthesia and dissected to give the tumors. The tumors were photographed.

HL60 cells = assay: Promotion of macrophage phagocytosis of tumor cells (flow cytometry); assay type: cell-based; details: CFSE-labeled HL60 cells, human macrophages
Protocol: The ability of the anti-CD47 antibodies to promote the phagocytosis of tumor cells by macrophages having SIRPα on the cell surface was determined based on flow cytometry.
Monocytes were isolated from human peripheral blood mononuclear cells (PBMC, Sailybio, Cat. No. 190056) using a monocyte isolation kit ([…], Cat. No. 19058), plated into a 24-well plate (Greiner bio-one, Cat. No. 662-160) at […] cells per well, and induced under 100 ng/mL stimulating factor M-CSF (R&D Systems, Cat. No. 216-MC-010) for 7 days to form macrophages. 1×10^6 target cells HL60 (Shanghai Institute of Biochemistry and Cell Biology, Chinese Academy of Sciences, Cat. No. TCHu23) were suspended in […] CFSE (BD Biosciences, Cat. No. 565082) fluorescent dye (diluted with a PBS buffer to the desired concentration), incubated in a water bath at 37° C. in the dark for 15 min, and washed with a PBS buffer to prepare CFSE-labeled HL60 cells, which were then incubated with each of 10 μg/mL and 1 μg/mL anti-CD47 antibodies (see Table 3 for chimenic antibodies, and see Table 4 for humanized antibodies) in an incubator at 37° C. with 5% CO2 for 1-2 h. The HL60 cells after the incubation were washed three times with a PBS buffer and added to the macrophages. […] The rate of phagocytosis (%) by the macrophages was determined using a flow cytometer (BD Biosciences, model: C6).

Raji cells = assay: Hematologic tumor mouse model of lymphoma Raji cells, survival; assay type: in vivo, NOD/SCID mice; details: 10 mg/kg intraperitoneal, 21 consecutive days
Protocol: A hematologic tumor mouse model was established using hematologic tumor Raji cells. The anti-CD47 antibodies were applied to the model for the evaluation of the pharmacodynamic activity.
A suspension of Raji cells in a PBS buffer was prepared at a concentration of 5×10^6 cells/mL, and was injected into female NOD/SCID mice via the tail vein at 0.1 mL/mouse. […] The administration was performed by intraperitoneal injection in doses of 10 mg/kg for 21 consecutive days. The survival time of the animals was observed.

[3] = Azacitadine 2.5 mg/kg IV QD × 5

Nc1ncn([C@@H]2O[C@H](CO)[C@@H](O)[C@H]2O)c(=O)n1 [Azacitadine, 4-amino-1-β-D-ribofuranosyl-1,3,5-triazin-2(1H)-one]
T/C(%) D12 ([1]; Azacitadine 1 mg/kg IV QD × 5): 50%
Tumor growth inhibition (%) D12 ([1]; Azacitadine 1 mg/kg IV QD × 5): 50%
T/C(%) D12 [1, 3]: 18%
Tumor growth inhibition (%) D12 [1, 3]: 82%
mean tumor volume D17 ([1]; azacitadine 1 mg/kg IV QD×5 monotherapy): 3729.5 ± 436.4 mm^3
mean tumor volume D17 ([1]; azacitadine 2.5 mg/kg IV QD×5 monotherapy): 1920.7 ± 375.6 mm^3

Rituximab: anti-CD20 monoclonal antibody [reference compound]
T/C(%) D24 [2]: 64%
Tumor growth inhibition (%) D24 [2]: 36%
Partial regression (number of tumors) ([2]; hIgG4 4.5 mg/kg, 6 mice per group (hIgG4 10)): 0

Hu5F9: the positive antibody Hu5F9, comparison anti-CD47 antibody [reference compound]
rate of phagocytosis (HL60 cells; 1 μg/mL antibody): 67.5%
rate of phagocytosis (HL60 cells; 10 μg/mL antibody): 72.35%
day on which all the animals in the group died (Raji cells): 30 days
median survival time (Raji cells): 18.5 days
